Legend:
Assay in all cases: relative viability (nuclei count vs DMSO), 5 days (fraction); higher = more cells survive
Lapatinib + Dasatinib = compound: CS(=O)(=O)CCNCc1ccc(-c2ccc3ncnc(Nc4ccc(OCc5cccc(F)c5)c(Cl)c4)c3c2)o1 [Lapatinib] + Cc1nc(Nc2ncc(C(=O)Nc3c(C)cccc3Cl)s2)cc(N2CCN(CCO)CC2)n1 [Dasatinib] (partner 0.075 µM)
Method in brief: (§1)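 Lung cancer cell lines were pin-tool dosed in 1536-well plates on the day after seeding, with either a lone drug or a fixed anchor-drug dose plus five library-drug doses (not always all listed) in √10 steps. Nuclei were counted on 4× images after 5 days. Relative viability is the ratio of treated-well to vehicle-well nuclei counts, with each value a median of duplicate plates.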

Lapatinib + Pemetrexed = compound: CS(=O)(=O)CCNCc1ccc(-c2ccc3ncnc(Nc4ccc(OCc5cccc(F)c5)c(Cl)c4)c3c2)o1 [Lapatinib] + Nc1nc2[nH]cc(CCc3ccc(C(=O)N[C@@H](CCC(=O)O)C(=O)O)cc3)c2c(=O)[nH]1 [Pemetrexed] (partner 0.2 µM)
Method in brief: as §1

Lapatinib + Bortezomib = compound: CS(=O)(=O)CCNCc1ccc(-c2ccc3ncnc(Nc4ccc(OCc5cccc(F)c5)c(Cl)c4)c3c2)o1 [Lapatinib] + CC(C)C[C@H](NC(=O)[C@H](Cc1ccccc1)NC(=O)c1cnccn1)B(O)O [Bortezomib] (partner 0.002 µM)
Method in brief: as §1

Lapatinib + Phenformin = compound: CS(=O)(=O)CCNCc1ccc(-c2ccc3ncnc(Nc4ccc(OCc5cccc(F)c5)c(Cl)c4)c3c2)o1 [Lapatinib] + N=C(N)NC(=N)NCCc1ccccc1 [Phenformin] (partner 250 µM)
Method in brief: as §1

Cell Line | relative viability (Lapatinib + Dasatinib; first compound 0.02 µM) | relative viability (Lapatinib + Dasatinib; first compound 0.06325 µM) | relative viability (Lapatinib + Dasatinib; first compound 0.2 µM) | relative viability (Lapatinib + Dasatinib; first compound 0.6325 µM) | relative viability (Lapatinib + Dasatinib; first compound 2 µM) | relative viability (Lapatinib + Pemetrexed; first compound 0.02 µM) | relative viability (Lapatinib + Pemetrexed; first compound 0.06325 µM) | relative viability (Lapatinib + Pemetrexed; first compound 0.2 µM) | relative viability (Lapatinib + Pemetrexed; first compound 0.6325 µM) | relative viability (Lapatinib + Pemetrexed; first compound 2 µM) | relative viability (Lapatinib + Bortezomib; first compound 0.02 µM) | relative viability (Lapatinib + Bortezomib; first compound 0.06325 µM) | relative viability (Lapatinib + Bortezomib; first compound 0.2 µM) | relative viability (Lapatinib + Bortezomib; first compound 0.6325 µM) | relative viability (Lapatinib + Bortezomib; first compound 2 µM) | relative viability (Lapatinib + Phenformin; first compound 0.06325 µM) | relative viability (Lapatinib + Phenformin; first compound 0.2 µM) | relative viability (Lapatinib + Phenformin; first compound 0.6325 µM) | relative viability (Lapatinib + Phenformin; first compound 2 µM) | relative viability (Lapatinib + Phenformin; first compound 0.02 µM)
NCI-H2085 | 0.241 | 0.212 | 0.284 | 0.16 | 0.204 | 0.743 | 0.806 | 0.911 | 0.847 | 0.605 | 0.667 | 0.979 | 0.998 | 0.994 | 1.02 | 0.64 | 0.735 | 0.61 | 0.458 | –
NCI-H2126 | – | 0.404 | 0.533 | 0.559 | 0.387 | 0.379 | 0.484 | 0.655 | 0.672 | 0.607 | – | 1.05 | 1.04 | 1.03 | 1.03 | 0.393 | 0.529 | 0.536 | 0.406 | –
NCI-H1666 | 0.764 | 0.612 | 0.748 | 0.661 | 0.508 | 0.858 | 0.789 | 0.851 | 0.841 | 0.67 | 0.761 | 0.619 | 0.848 | 0.877 | 0.378 | 0.545 | 0.592 | 0.611 | 0.461 | 0.555
LC-2-ad | – | 0.382 | 0.687 | 0.514 | 0.465 | – | 0.29 | 0.264 | 0.271 | 0.232 | – | 0.936 | 0.994 | 1.14 | 0.96 | 0.438 | 0.551 | 0.478 | 0.519 | –
HCC-827 | 0.334 | 0.313 | 0.281 | 0.377 | 0.155 | 0.26 | 0.263 | 0.285 | 0.239 | 0.202 | 0.982 | 1.04 | 1.1 | 0.94 | 1.07 | 0.398 | 0.412 | 0.414 | 0.335 | 0.383
SK-LU-1 | 0.162 | 0.159 | 0.179 | 0.205 | 0.182 | 0.961 | 0.9 | 1.02 | 0.98 | 0.886 | – | 1.04 | 1.05 | 1.2 | 1.2 | 0.484 | 0.547 | 0.674 | 0.512 | 0.464
HCC-366 | – | 0.493 | 0.572 | 0.722 | 0.544 | – | 0.239 | 0.187 | 0.149 | 0.118 | – | 1.03 | 1.06 | 0.992 | 0.935 | 0.642 | 0.633 | 0.594 | 0.559 | –
EPLC-272H | – | – | 0.359 | 0.367 | 0.272 | 0.342 | 0.235 | 0.337 | 0.288 | 0.21 | – | 0.837 | 0.904 | 1.01 | 0.781 | – | 0.243 | 0.266 | 0.241 | –
NCI-H322M | 0.287 | 0.238 | 0.246 | 0.226 | 0.225 | 0.648 | 0.54 | 0.571 | 0.575 | 0.49 | 1.12 | 1.02 | 1.08 | 1.23 | 1.3 | 0.736 | 0.736 | 0.693 | 0.551 | 0.805
NCI-H2228 | 0.397 | 0.426 | 0.606 | 0.52 | 0.49 | 0.338 | 0.34 | 0.312 | 0.272 | 0.331 | 0.841 | 1 | 1.09 | 1.01 | 0.801 | 0.25 | 0.245 | 0.292 | 0.325 | 0.33
NCI-H1755 | 0.375 | 0.278 | 0.422 | 0.381 | 0.394 | 0.423 | 0.405 | 0.49 | 0.451 | 0.439 | 0.807 | 0.919 | 0.997 | 0.984 | 0.874 | 0.595 | 0.642 | 0.59 | 0.59 | 0.409
ChaGo-K-1 | 0.43 | 0.531 | 0.544 | 0.527 | 0.592 | 0.281 | 0.274 | 0.265 | 0.264 | 0.253 | – | 1.04 | 0.863 | 0.956 | 0.738 | 0.386 | 0.465 | 0.454 | 0.414 | 0.379
LXF-289 | 0.0714 | 0.116 | 0.224 | 0.273 | 0.179 | 0.891 | 0.901 | 0.884 | 0.844 | 0.768 | 0.972 | 0.931 | 0.981 | 1 | 0.929 | 0.482 | 0.509 | 0.488 | 0.52 | 0.142
LCLC-97TM1 | – | – | 0.854 | 0.91 | 0.875 | – | 0.128 | 0.184 | 0.168 | 0.176 | – | – | 0.515 | 0.74 | 0.819 | – | 0.462 | 0.407 | 0.471 | –
NCI-H2347 | – | 0.315 | 0.299 | 0.329 | 0.25 | – | 0.421 | 0.417 | 0.436 | 0.504 | – | 1.17 | 0.87 | 0.796 | 1 | 0.376 | 0.498 | 0.641 | 0.337 | –
PC-3 [JPC-3] | 0.877 | 0.87 | 1 | 0.977 | 0.624 | – | 1.13 | – | 0.995 | 0.588 | – | 0.796 | 0.818 | 0.864 | 0.837 | 0.468 | 0.457 | 0.521 | 0.431 | 0.452
H3255 | 0.316 | 0.325 | 0.315 | 0.288 | 0.18 | 0.514 | 0.514 | 0.544 | 0.504 | 0.407 | 0.633 | 0.735 | 0.581 | 0.575 | 0.395 | 0.327 | 0.314 | 0.299 | 0.224 | 0.37
HOP-62 | 0.508 | 0.633 | 0.615 | 0.69 | 0.566 | – | 0.318 | 0.299 | 0.365 | 0.389 | – | 0.857 | 0.577 | 0.99 | 0.761 | 0.641 | 0.635 | 0.631 | 0.695 | 0.499
NCI-H441 | – | 0.263 | 0.562 | 0.557 | 0.592 | 0.305 | – | 0.248 | 0.231 | 0.248 | – | 0.628 | 0.45 | 0.379 | 0.657 | 0.43 | 0.946 | 0.901 | 0.873 | –
PC-14 | 0.25 | 0.198 | 0.251 | 0.159 | 0.0375 | 0.151 | 0.117 | 0.167 | 0.133 | 0.129 | 0.799 | 0.936 | 0.835 | 0.898 | 0.661 | 0.642 | 0.523 | 0.461 | 0.337 | –
EMC-BAC-2 | 0.294 | 0.162 | 0.349 | 0.358 | 0.279 | – | 0.452 | 0.475 | 0.475 | 0.45 | 0.871 | 0.999 | 1.07 | 0.991 | 0.87 | 0.407 | 0.532 | 0.549 | 0.499 | 0.422
NCI-H2087 | – | 0.609 | 0.874 | 0.988 | 0.854 | 0.646 | 0.636 | 0.599 | 0.616 | 0.513 | 0.445 | 0.738 | 0.832 | 0.679 | 0.761 | 0.354 | 0.485 | 0.552 | 0.406 | –
NCI-H1355 | – | 0.465 | 0.705 | 0.694 | 0.319 | 0.833 | 0.93 | 0.948 | 1.06 | 0.889 | – | 0.954 | 1.13 | 1.2 | 0.573 | 0.37 | 0.455 | 0.428 | 0.367 | –
COR-L23 | 0.501 | 0.441 | 0.508 | 0.565 | 0.443 | 0.214 | 0.189 | 0.2 | 0.204 | 0.203 | 0.948 | 1.07 | 1.08 | 0.934 | 0.998 | 0.421 | 0.474 | 0.455 | 0.42 | 0.419
HCC-15 | – | 0.403 | 0.591 | 0.622 | 0.551 | – | 0.212 | 0.223 | 0.212 | 0.203 | – | 1.06 | 1.02 | 1 | 0.979 | 0.398 | 0.521 | 0.498 | 0.484 | –
NCI-H2023 | 0.458 | – | 0.516 | 0.619 | 0.381 | – | 0.182 | 0.233 | 0.193 | 0.186 | 0.135 | 0.712 | 0.969 | 1.1 | 0.913 | – | 0.417 | 0.429 | 0.307 | 0.395
NCI-H1792 | 0.763 | – | 0.754 | 0.68 | 0.425 | – | – | 0.936 | 0.75 | 0.656 | 0.892 | 0.718 | 0.922 | 0.923 | 1.02 | – | 0.219 | 0.207 | 0.289 | –
HARA | – | 0.195 | 0.244 | 0.242 | 0.19 | 0.222 | 0.225 | 0.274 | 0.277 | 0.224 | 1.08 | 0.579 | 1.05 | 0.961 | 0.694 | 0.307 | 0.434 | 0.399 | 0.337 | –
EKVX | – | 0.321 | 0.423 | 0.384 | 0.196 | – | 0.361 | 0.344 | 0.274 | 0.355 | 0.888 | 0.862 | 0.914 | 0.634 | 0.161 | 0.218 | 0.242 | 0.235 | 0.146 | 0.185
HCC-78 | – | 0.42 | 0.333 | 0.464 | 0.411 | – | 0.832 | 0.882 | 0.841 | 0.936 | 0.546 | – | 0.463 | 0.407 | 0.297 | 0.631 | 0.588 | 0.856 | 0.654 | –

From the supplement of paper PMC10307832
